Source: patent US4946860A, “Benzothiopyranyl derivatives as HMG-CoA reductase inhibitors” (Rorer Pharmaceutical Corporation, priority 1989, dated 1990)
pIC50: −log10 of the molar value.

Columns and labels:
HMGR enzyme = assay: HMGR Screen (solubilized rat liver microsomal HMG-CoA reductase, [14C] HMG-CoA); type: biochemical; settings: 20 μM HMG-CoA, pH 7.0, 37° C.
Procedure: (§1) The utility of the claimed compounds is measured by the test methods described hereunder. […] 1976, Biochemistry.
The first method used (designated HMGR Screen) was as follows: Male rats were acclimated to an alternate 12 hour light-dark cycle for a period of 2-3 weeks. The animals, weighing 180-230g, were fed ad libitum a rat chow containing 2% cholestyramine for 5 days prior to sacrifice at the mid-dark period. Liver microsomes were prepared and HMGR enzyme was solubilized from the microsomes by freeze-thaw manipulation in high ionic strength buffer. The enzyme preparation was stored at -80° C. in 300 μl portion samples. Prior to use, the enzyme was activated at 37° C. for 30 minutes in a reaction mixture. The reaction mixture was contained in a volume of 240 μl1:0.14M potassium phosphate buffer (pH 7.0); 0.18M KCl; 3.5 mM EDTA; 10 mM dithiothreitol; 0.1 mg/ml BSA; 30,000 cpm of [^14 C] HMG-CoA; 20 μM HMG-CoA; and 200 μg of solubilized enzyme with and without inhibitors (in 10 μl DMSO). After 5 minutes incubation at 37° C. the reaction was initiated with 0.2 mM NADPH. The final assay volume was 300 μl. After 10 minutes the reaction mixture was terminated with 100 μl of 1N HCl. […] After the addition of 10 ml of Aquasol , radioactivities of the samples were measured in a scintillation counter.

cholesterol synthesis = assay: Ex-Vivo Non-Fasted (cholesterol synthesis from [14C] sodium acetate in liver slices of orally dosed fed rats); parameters: species or system rat; settings: oral in 0.5% methocel, livers removed two hours after dosing, dose not given
Procedure: as §1
The second method used (designated Ex-Vivo Non-Fasted and Ex-Vivo Fasted) used was as follows: Rats of 170-210g were maintained on a low cholesterol diet for one week prior to use. Drugs were given orally in 0.5% methocel to both fed and fasted (fasted for 16 hours) rats. After one hour (fasted rats) and two hours (fed rats) the rats were decapitated and their livers removed and transferred to chilled oxygenated Kreb's-Ringer-bicarbonate buffer (pH 7.4). The livers were then chopped into 0.5 mm slices using a McIlwain tissue chopper, and were suspended in the same buffer. Aliquots of the suspension containing 100 mg tissue were pipetted to culture tubes which contained [^14 C] sodium acetate (2 μCi, 1 mM). The tubes were gassed with 95% O2 /5%CO2, capped and incubated at 37° C. in a shaking water bath at 150 oscillation/minute for two hours. The final assay volume was 1.0 ml. After incubation the reaction was stopped by the addition of 1.0 ml of 15% KOH in ethanol, and the internal standard ^3 H-cholesterol was added. The tubes were recapped and the samples were saponified at 75° C. for two hours with periodic mixing. […] After visualization with iodine the cholesterol spots were cut and counted with liquid scintillation fluid. […]

Structure (SMILES): CC1(C)Sc2ccccc2C(c2ccc(F)cc2)=C1/C=C/[C@@H]1C[C@@H](O)CC(=O)O1 (relative stereo) [Example 1G]
- pIC50 (HMGR enzyme): 8.01
- inhibited cholesterol synthesis (cholesterol synthesis): 43%
